What was measured:
Assay type in all cases: in vivo, human
[1] = tested on: CRP; experiment: CRP value by latex agglutination assay in a patient given Pimobendan orally
Method: (§1) 2-(4-Methoxyphenyl)-5-(5-methyl-3-oxo-4,5-dihydro-2H-6-pyridazinyl)-benzimidazole (hereunder referred to as imobendan was orally administered to a patient who suffered from heart failure while malignant articular rheumatism set in as a complication and the CRP value thereof was determined with the elapse of time.
The CRP value was determined by the latex agglutination assay disclosed in Senju Osamu, et al.: J. Clin. Lab. Immunol. 19:99-103(1986) according to a method identical to that disclosed in Claus David R. et al.: J. Lab. Clin. Med. 87:120-128(1976).
When Pimobendan was administered to the patient in a dose of 1.25 mg, the CRP value thereof was reduced and therefore, the compound was administered in a dose of 1.25 mg twice a day on and after the next day (this was defined to be the day at which the administration was initiated).
(§2) Thus, the administration of Pimobendan was discontinued. Thereafter, Pimobendan was again administered to the patient in a dose of 1.25 mg twice a day to confirm the effect of the drug to reduce the CRP value.

[2] = tested on: heart function; experiment: Echocardiography of the patient; settings: patient with heart failure, 1.25 mg twice a day
[3] = tested on: inflammation due to the malignant articular rheumatism; experiment: Inflammation due to malignant articular rheumatism in the patient; settings: re-administration, 1.25 mg twice a day
Method: as §1, §2

`COc1ccc(-c2nc3ccc(C4=NNC(=O)CC4C)cc3[nH]2)cc1` (centres unmarked) [Pimobendan, 2-(4-Methoxyphenyl)-5-(5-methyl-3-oxo-4,5-dihydro-2H-6-pyridazinyl)-benzimidazole] was tested, and the “CRP value (change)” value ([1]; after first dose of 1.25 mg, value prior to administration 4.7 mg/dl) was “reduced”, the “CRP Value” ([1]; day 89, in parentheses: day at which Pimobendan was not administered (discontinued)) was “(5.0) mg/dl” and the “CRP Value” ([1]; day 90, in parentheses: day at which Pimobendan was not administered (discontinued)) was “(2.7) mg/dl”. The “CRP Value” ([1]; day 97, in parentheses: day at which Pimobendan was not administered (discontinued)) was “(2.4) mg/dl”, the “CRP Value” ([1]; day 105, in parentheses: day at which Pimobendan was not administered (discontinued)) was “(3.6) mg/dl” and the “CRP Value” ([1]; day 113, in parentheses: day at which Pimobendan was not administered (discontinued)) was “(3.2) mg/dl”. For the same compound, the “CRP Value” ([1]; day 119, in parentheses: day at which Pimobendan was not administered (discontinued)) was “(2.9) mg/dl”, the “CRP Value” ([1]; patient, again 1.25 mg twice a day, day 126 after initiating the administration) was 3.0 mg/dL and the “CRP Value” ([1]; patient, again 1.25 mg twice a day, day 127 after initiating the administration) was 4.3 mg/dL. The “CRP Value” ([1]; patient, again 1.25 mg twice a day, day 130 after initiating the administration) was 3.8 mg/dL, the “CRP Value” ([1]; patient, again 1.25 mg twice a day, day 132 after initiating the administration) was 2.1 mg/dL and the “CRP Value” ([1]; patient, again 1.25 mg twice a day, day 137 after initiating the administration) was 1.3 mg/dL. For the same compound, the “CRP Value” ([1]; patient, oral 1.25 mg twice a day, day 12 after initiating the administration) was 1.7 mg/dL, the “CRP Value” ([1]; patient, oral 1.25 mg twice a day, day 28 after initiating the administration) was 6.1 mg/dL and the “CRP Value” ([1]; patient, oral 1.25 mg twice a day, day 61 after initiating the administration) was 3.0 mg/dL. For the same compound, the “CRP Value” ([1]; patient, oral 1.25 mg twice a day, day 71 after initiating the administration) was 3.3 mg/dL, the “CRP value (change)” value ([1]; re-administration, 1.25 mg twice a day after discontinuation) was “again reduced” and the “CRP value (overall conclusion from Table 1)” value ([1]; whole test period) was “reduce the CRP value to a clinically satisfactory level”. For the same compound, the heart function [2] was “improved” and the “inflammation due to the malignant articular rheumatism” value [3] was “recovered”.
